Measured values: ChEMBL document CHEMBL4699632, “Discovery of polypodiside as a Keap1-dependent Nrf2 activator attenuating oxidative stress and accumulation of extracellular matrix in glomerular mesangial cells under high glucose” (Bioorg Med Chem, 2020)
The source made the active and inactive calls. No cut-off for these calls is given here.

Tests used:
[1] = test system: Glomerular mesangial cell; experiment: Effect on high glucose-induced extracellular matrix accumulation in human glomerular mesangial cells transfected with Nrf2-siRNA assessed as decrease in collagen 4 level at 10 uM; type: functional, tissue-based
[2] = Antioxidant activity against high glucose-induced oxidative stress in human glomerular mesangial cells assessed as effect on CAT activity at 1 uM by colorimetric assay relative to control; type: functional, Glomerular mesangial cell
[3] = target: T1, Nuclear factor erythroid 2-related factor 2 (Homo sapiens) (UniProt Q16236); experiment: Activation of Nrf2 in human glomerular mesangial cells assessed as increase in Nrf2 level at 0.1 to 10 uM under high glucose condition; type: tissue-based; conditions: Glomerular mesangial cell, filed as activator, dose microM 0.1-10
T1 sequence (whole entry): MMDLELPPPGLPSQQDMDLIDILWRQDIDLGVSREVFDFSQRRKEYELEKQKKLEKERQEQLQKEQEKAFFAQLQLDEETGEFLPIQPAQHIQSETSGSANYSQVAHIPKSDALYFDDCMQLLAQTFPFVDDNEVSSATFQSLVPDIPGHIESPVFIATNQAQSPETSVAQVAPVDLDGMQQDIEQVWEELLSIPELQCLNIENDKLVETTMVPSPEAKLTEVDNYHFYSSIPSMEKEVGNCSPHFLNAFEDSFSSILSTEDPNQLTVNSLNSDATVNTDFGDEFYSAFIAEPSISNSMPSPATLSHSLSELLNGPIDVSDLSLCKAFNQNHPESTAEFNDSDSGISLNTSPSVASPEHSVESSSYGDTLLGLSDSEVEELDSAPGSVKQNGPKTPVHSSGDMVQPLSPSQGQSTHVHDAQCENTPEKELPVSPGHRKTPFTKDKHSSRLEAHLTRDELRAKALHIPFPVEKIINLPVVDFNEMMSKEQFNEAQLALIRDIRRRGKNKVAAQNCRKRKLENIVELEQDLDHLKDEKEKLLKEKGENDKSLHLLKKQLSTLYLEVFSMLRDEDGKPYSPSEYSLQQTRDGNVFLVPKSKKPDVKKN

[4] = Suppression of high glucose-induced extracellular matrix accumulation in human glomerular mesangial cells assessed as effect on TGFbeta1 secretion at 10 uM by ELISA (reference value: 312.7 +/- 18.2 %); type: functional; conditions: Glomerular mesangial cell
[5] = Suppression of high glucose-induced extracellular matrix accumulation in human glomerular mesangial cells assessed as fibronectin level at 1 uM by ELISA (reference value: 319.6 +/- 12.4 %); type: functional; conditions: Glomerular mesangial cell
[6] = Suppression of high glucose-induced extracellular matrix accumulation in human glomerular mesangial cells assessed as laminin level at 1 uM by ELISA (reference value: 183.8 +/- 9.3 %); type: functional; conditions: Glomerular mesangial cell
[7] = test system: Glomerular mesangial cell; experiment: Suppression of high glucose-induced extracellular matrix accumulation in human glomerular mesangial cells assessed as decrease in TGFbeta1 secretion by ELISA; type: functional, tissue-based; conditions: dose microM 0.1-10
[8] = test system: Glomerular mesangial cell; experiment: Effect on high glucose-induced extracellular matrix accumulation in human glomerular mesangial cells transfected with Nrf2-siRNA assessed as decrease in fibronectin level at 10 uM; type: functional, tissue-based
[9] = test system: Glomerular mesangial cell; experiment: Effect on high glucose-induced oxidative stress in human glomerular mesangial cells transfected with Nrf2-siRNA assessed as decrease in intracellular ROS level at 10 uM; type: functional, tissue-based
[10] = Antioxidant activity against high glucose-induced oxidative stress in human glomerular mesangial cells assessed as effect on SOD activity at 1 uM by colorimetric assay relative to control; type: functional, Glomerular mesangial cell
[11] = Antioxidant activity against high glucose-induced oxidative stress in human glomerular mesangial cells assessed as effect on CAT activity at 10 uM by colorimetric assay relative to control; type: functional, Glomerular mesangial cell
[12] = Suppression of high glucose-induced extracellular matrix accumulation in human glomerular mesangial cells assessed as laminin level at 0.1 uM by ELISA (reference value: 183.8 +/- 9.3 %); type: functional; conditions: Glomerular mesangial cell
[13] = Antioxidant activity against high glucose-induced oxidative stress in human glomerular mesangial cells assessed as effect on SOD activity at 0.1 uM by colorimetric assay relative to control; type: functional, Glomerular mesangial cell
[14] = test system: Glomerular mesangial cell; experiment: Suppression of high glucose-induced extracellular matrix accumulation in human glomerular mesangial cells assessed as reduction in collagen 4 level by ELISA; type: functional, tissue-based; conditions: dose microM 0.1-10
[15] = Suppression of high glucose-induced extracellular matrix accumulation in human glomerular mesangial cells assessed as fibronectin level at 10 uM by ELISA (reference value: 319.6 +/- 12.4 %); type: functional; conditions: Glomerular mesangial cell
[16] = Suppression of high glucose-induced extracellular matrix accumulation in human glomerular mesangial cells assessed as collagen 4 level at 10 uM by ELISA (reference value: 221.7 +/- 14.1 %); type: functional; conditions: Glomerular mesangial cell
[17] = test system: Glomerular mesangial cell; experiment: Suppression of high glucose-induced extracellular matrix accumulation in human glomerular mesangial cells assessed as reduction in fibronectin level by ELISA; type: functional, tissue-based; conditions: dose microM 0.1-10
[18] = Antioxidant activity against high glucose-induced oxidative stress in human glomerular mesangial cells assessed as effect on intracellular MDA level at 0.1 uM after 10 mins by thiobarbituric acid based absorbance analysis (reference value: 216 +/- 17.3 %); type: functional, Glomerular mesangial cell
[19] = test system: Glomerular mesangial cell; experiment: Increase in total Nrf2 expression in human glomerular mesangial cells at 10 uM under high glucose condition by Western blot analysis; type: functional, tissue-based; conditions: dose microM 0.1-10
[20] = Cytotoxicity against human glomerular mesangial cells assessed as effect on cell viability at 400 uM after 1 hr by CCK8 assay; type: cell-based
[21] = Suppression of high glucose-induced extracellular matrix accumulation in human glomerular mesangial cells assessed as effect on CTGF secretion at 10 uM by ELISA (reference value: 267.7 +/- 21.3 %); type: functional; conditions: Glomerular mesangial cell
[22] = Antioxidant activity against high glucose-induced oxidative stress in human glomerular mesangial cells assessed as effect on CAT activity at 0.1 uM by colorimetric assay relative to control; type: functional, Glomerular mesangial cell
[23] = test system: Glomerular mesangial cell; experiment: Effect on high glucose-induced extracellular matrix accumulation in human glomerular mesangial cells transfected with Nrf2-siRNA assessed as decrease in laminin level at 10 uM; type: functional, tissue-based
[24] = Suppression of high glucose-induced extracellular matrix accumulation in human glomerular mesangial cells assessed as fibronectin level at 0.1 uM by ELISA (reference value: 319.6 +/- 12.4 %); type: functional; conditions: Glomerular mesangial cell
[25] = target: T1, Nuclear factor erythroid 2-related factor 2 (Homo sapiens); experiment: Activation of Nrf2 in human glomerular mesangial cells assessed as translocation of Nrf2 from cytoplasm to nucleus at 0.1 to 10 uM under high glucose condition by DAPI staining based fluorescence microscopy analysis; type: tissue-based; conditions: Glomerular mesangial cell, filed as activator, dose microM 0.1-10
[26] = Antioxidant activity against high glucose-induced oxidative stress in human glomerular mesangial cells assessed as effect on intracellular MDA level at 10 uM after 10 mins by thiobarbituric acid based absorbance analysis (reference value: 216 +/- 17.3 %); type: functional, Glomerular mesangial cell
[27] = Antioxidant activity against high glucose-induced oxidative stress in human glomerular mesangial cells assessed as effect on intracellular ROS level at 1 uM after 20 mins by DCFH-DA staining based fluorescence assay (reference value: 361 +/- 16.7 %); type: functional, Glomerular mesangial cell
[28] = Suppression of high glucose-induced extracellular matrix accumulation in human glomerular mesangial cells assessed as collagen 4 level at 1 uM by ELISA (reference value: 221.7 +/- 14.1 %); type: functional; conditions: Glomerular mesangial cell
[29] = Antioxidant activity against high glucose-induced oxidative stress in human glomerular mesangial cells assessed as effect on intracellular ROS level at 0.1 uM after 20 mins by DCFH-DA staining based fluorescence assay (reference value: 361 +/- 16.7 %); type: functional, Glomerular mesangial cell
[30] = Antioxidant activity against high glucose-induced oxidative stress in human glomerular mesangial cells assessed as effect on SOD activity at 10 uM by colorimetric assay relative to control; type: functional, Glomerular mesangial cell
[31] = Suppression of high glucose-induced extracellular matrix accumulation in human glomerular mesangial cells assessed as effect on TGFbeta1 secretion at 0.1 uM by ELISA (reference value: 312.7 +/- 18.2 %); type: functional; conditions: Glomerular mesangial cell
[32] = test system: Glomerular mesangial cell; experiment: Effect on high glucose-induced oxidative stress in human glomerular mesangial cells transfected with Nrf2-siRNA assessed as decrease in intracellular MDA level at 10 uM; type: functional
[33] = target: T1, Nuclear factor erythroid 2-related factor 2 (Homo sapiens); experiment: Activation of Nrf2 in human glomerular mesangial cells assessed as increase in nuclear Nrf2 expression at 0.1 to 10 uM under high glucose condition by Western blot analysis; conditions: Glomerular mesangial cell, filed as activator, dose microM 0.1-10
[34] = target: Kelch-like ECH-associated protein 1 (Homo sapiens) (UniProt Q14145); experiment: Binding affinity to Keap1 in human glomerular mesangial cells assessed as disruption of Keap1-Nrf2 complex formation causing decrease in Keap1 level at 10 uM measured after overnight by co-immunoprecipitation analysis; type: tissue-based; conditions: Glomerular mesangial cell, filed as activator, time 12.0 hrs
[35] = Antioxidant activity against high glucose-induced oxidative stress in human glomerular mesangial cells assessed as effect on intracellular MDA level at 1 uM after 10 mins by thiobarbituric acid based absorbance analysis (reference value: 216 +/- 17.3 %); type: functional, Glomerular mesangial cell
[36] = test system: Glomerular mesangial cell; experiment: Cytoprotective activity against high glucose-induced self-limited proliferation in human glomerular mesangial cells at 0.1 to 10 uM measured after 3 hrs under high glucose condition by BrdU incorporation assay; type: functional, tissue-based; conditions: dose microM 0.1-10, time 3.0 hrs
[37] = test system: Glomerular mesangial cell; experiment: Cytoprotective activity against high glucose-induced decreased cell viability in human glomerular mesangial cells at 0.1 uM after 1 hr by CCK8 assay; type: functional, tissue-based
[38] = Suppression of high glucose-induced extracellular matrix accumulation in human glomerular mesangial cells assessed as effect on TGFbeta1 secretion at 1 uM by ELISA (reference value: 312.7 +/- 18.2 %); type: functional; conditions: Glomerular mesangial cell
[39] = test system: Glomerular mesangial cell; experiment: Suppression of high glucose-induced extracellular matrix accumulation in human glomerular mesangial cells assessed as decrease in CTGF secretion by ELISA; type: functional, tissue-based; conditions: dose microM 0.1-10
[40] = Antioxidant activity against high glucose-induced oxidative stress in human glomerular mesangial cells assessed as effect on intracellular ROS level at 10 uM after 20 mins by DCFH-DA staining based fluorescence assay (reference value: 361 +/- 16.7 %); type: functional, Glomerular mesangial cell
[41] = target: T1, Nuclear factor erythroid 2-related factor 2 (Homo sapiens); experiment: Activation of Nrf2 in human glomerular mesangial cells transfected with ARE luciferase reporter plasmid assessed as increase in ARE luciferase activity at 0.1 to 10 uM under high glucose condition by dual luciferase reporter gene assay; conditions: Glomerular mesangial cell, filed as activator, dose microM 0.1-10
[42] = Suppression of high glucose-induced extracellular matrix accumulation in human glomerular mesangial cells assessed as collagen 4 level at 0.1 uM by ELISA (reference value: 221.7 +/- 14.1 %); type: functional; conditions: Glomerular mesangial cell
[43] = test system: Glomerular mesangial cell; experiment: Suppression of high glucose-induced extracellular matrix accumulation in human glomerular mesangial cells assessed as reduction in laminin level by ELISA; type: functional, tissue-based; conditions: dose microM 0.1-10
[44] = Suppression of high glucose-induced extracellular matrix accumulation in human glomerular mesangial cells assessed as laminin level at 10 uM by ELISA (reference value: 183.8 +/- 9.3 %); type: functional; conditions: Glomerular mesangial cell

Chain of Kelch-like ECH-associated protein 1 (Homo sapiens) (Q14145 whole entry): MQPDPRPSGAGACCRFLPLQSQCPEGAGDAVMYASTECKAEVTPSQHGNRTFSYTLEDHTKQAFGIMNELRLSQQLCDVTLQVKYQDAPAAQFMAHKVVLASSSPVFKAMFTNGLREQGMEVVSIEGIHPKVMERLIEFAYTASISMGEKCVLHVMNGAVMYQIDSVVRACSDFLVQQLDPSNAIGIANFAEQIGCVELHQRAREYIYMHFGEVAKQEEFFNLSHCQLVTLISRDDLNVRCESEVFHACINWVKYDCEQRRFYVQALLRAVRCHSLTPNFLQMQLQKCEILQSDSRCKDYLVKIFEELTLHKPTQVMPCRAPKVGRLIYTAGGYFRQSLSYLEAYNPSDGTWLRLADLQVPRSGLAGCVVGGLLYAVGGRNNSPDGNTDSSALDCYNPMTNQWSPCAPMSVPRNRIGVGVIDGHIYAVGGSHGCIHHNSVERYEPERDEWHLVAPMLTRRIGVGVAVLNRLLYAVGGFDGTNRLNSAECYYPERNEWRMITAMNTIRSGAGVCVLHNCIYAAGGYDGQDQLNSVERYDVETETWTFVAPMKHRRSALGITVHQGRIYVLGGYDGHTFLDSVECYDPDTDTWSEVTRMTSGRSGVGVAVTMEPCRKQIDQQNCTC

Activity [3]: Active
Activity [25]: Active
Activity [33]: Active
Activity [34]: Active
Activity [41]: Active
Structure (SMILES): O=C(O)/C=C/c1cc(OC(=O)/C=C/c2ccc(O[C@@H]3O[C@H](CO)[C@@H](O)[C@H](O)[C@H]3O)cc2)cc(O[C@@H]2O[C@H](CO)[C@@H](O)[C@H](O)[C@H]2O)c1
Activity [1]: inactive
Activity [2]: 188.5%
level, % of control at 10 µM [4]: 140%
level, % of control at 1 µM [5]: 246%
level, % of control at 1 µM [6]: 148%
inhibition [7]: Dose-dependent effect
Activity [8]: inactive
Activity [9]: inactive
Activity [10]: 229.2%
Activity [11]: 233.4%
level, % of control at 0.1 µM [12]: 163%
Activity [13]: 155.7%
inhibition [14]: Dose-dependent effect
level, % of control at 10 µM [15]: 179%
level, % of control at 10 µM [16]: 129%
inhibition [17]: Dose-dependent effect
Activity [18]: 183.9%
Activity [19]: Active
Activity [20]: Non-Toxic
level, % of control at 10 µM [21]: 119%
Activity [22]: 144.6%
Activity [23]: inactive
level, % of control at 0.1 µM [24]: 282%
Activity [26]: 135.9%
Activity [27]: 287.2%
level, % of control at 1 µM [28]: 163%
Activity [29]: 323%
Activity [30]: 306.3%
level, % of control at 0.1 µM [31]: 262%
Activity [32]: inactive
Activity [35]: 163.7%
Activity [36]: Active
Activity [37]: Active
level, % of control at 1 µM [38]: 213%
inhibition [39]: Dose-dependent effect
Activity [40]: 190.8%
level, % of control at 0.1 µM [42]: 193%
inhibition [43]: Dose-dependent effect
level, % of control at 10 µM [44]: 124%
